Read-outs that look alike come from different tables or passages of the source.

Assay [1] deals with human IRAK4 (Homo sapiens (Human), UniProt Q9NWZ3). The assay is described as follows: IRAK4 kinase assay (IRAK4 TR-FRET assay). In kind it is biochemical. As to the method:
The IRAK4-inhibitory activity of the inventive substances was measured in the IRAK4 TR-FRET assay (TR-FRET=Time Resolved Fluorescence Resonance Energy Transfer) described hereinafter.
Recombinant fusion protein from N-terminal GST (glutathione S-transferase) and human IRAK4, expressed in baculovirus-infected insect cells (Hi5, BTI-TN-5B1-4, cell line purchased from Invitrogen, catalogue No. B855-02) and purified via affinity chromatography, was used as enzyme. The substrate used for the kinase reaction was the biotinylated peptide biotin-Ahx-[…] (C-terminus in amide form) which can be purchased, for example, from Biosyntan GmbH (Berlin-Buch).
50 nl of the respective solution were pipetted into a black low-volume 384-well microtitre plate (Greiner Bio-One, Frickenhausen, Germany), 2 μl of a solution of IRAK4 in assay buffer [50 mM HEPES pH 7.5, 5 mM MgCl2, 1.0 mM dithiothreitol, 30 μM activated sodium orthovanadate, 0.1% (w/v) of bovine gamma-globulin (BGG) 0.04% (v/v) nonidet-P40 (Sigma)] were added and the mixture was incubated for 15 min to allow prebinding of the substances to the enzyme prior to the kinase reaction. […] The concentration of the IRAK4 was adjusted to the respective activity of the enzyme and set such that the assay was carried out in the linear range. Typical concentrations were in the order of about 0.2 nM.
The resulting mixture was incubated at 22° C. for 1 h to allow formation of a complex of the biotinylated phosphorylated substrate and the detection reagents. The amount of the phosphorylated substrate was then evaluated by measuring the resonance energy transfer from europium chelate-labelled anti-mouse-IgG antibody to streptavidin-XL665. […] The IC50 values were calculated by a 4-parameter fit.

In assay [2] the test system is THP-1 cells. Description: TNF-α secretion in THP-1 cells (LPS-triggered, HTRF). In kind it is cell-based. As to conditions: Homo sapiens, read-out: IC50 with respect to the secretion of TNF-α in THP-1 cells. As to the method:
This test is suited to test substances for their ability to inhibit secretion of TNF-α (tumour necrosis factor alpha) in THP-1 cells (human monocytic acute leukaemia cell line). TNF-α is a cytokine involved in inflammatory processes. In this test, TNF-α secretion is triggered by incubation with bacterial lipopolysaccharide (LPS).
The cells were incubated at room temperature for 15 min. 2-2.5 μl of 0.1 μg/ml LPS (Sigma, Escherichia coli 055:B5, Cat. No. L5418) dissolved in cell culture medium (final concentration 0.05 μg/ml) were then dispensed into each well. As neutral control, cells were treated with 0.05 μg/ml LPS and 1% DMSO and, as inhibitor control, with 1% DMSO only.
The amount of TNF-α was determined using the TNF-alpha HTRF Detection Kit (Cisbio, Cat. No. 62TNFPEB/C). To this end, 2 μl of the detection solution in each case, consisting of anti-TNF-α-XL665 conjugate and anti-TNF-α-cryptate conjugate dissolved in the reconstitution buffer in accordance with the manufacturer's instructions, were added for the HTRF (Homogeneous Time-Resolved Fluorescence) test. After the addition, the mixture was incubated either at room temperature for 3 h or at 4° C. overnight.
The activity of the substances is expressed as the ratio between neutral and inhibitor control in percent. The IC50 values were calculated using a 4-parameter fit.
(In general: Time-resolved FRET reads energy transfer from a long-lived donor to a nearby acceptor.)

The mark [3] stands for this setting: TR-FRET, 1 mM ATP, read-out: IC50 in the IRAK4 kinase assay.

human IRAK4, sequence (Q9NWZ3 whole entry): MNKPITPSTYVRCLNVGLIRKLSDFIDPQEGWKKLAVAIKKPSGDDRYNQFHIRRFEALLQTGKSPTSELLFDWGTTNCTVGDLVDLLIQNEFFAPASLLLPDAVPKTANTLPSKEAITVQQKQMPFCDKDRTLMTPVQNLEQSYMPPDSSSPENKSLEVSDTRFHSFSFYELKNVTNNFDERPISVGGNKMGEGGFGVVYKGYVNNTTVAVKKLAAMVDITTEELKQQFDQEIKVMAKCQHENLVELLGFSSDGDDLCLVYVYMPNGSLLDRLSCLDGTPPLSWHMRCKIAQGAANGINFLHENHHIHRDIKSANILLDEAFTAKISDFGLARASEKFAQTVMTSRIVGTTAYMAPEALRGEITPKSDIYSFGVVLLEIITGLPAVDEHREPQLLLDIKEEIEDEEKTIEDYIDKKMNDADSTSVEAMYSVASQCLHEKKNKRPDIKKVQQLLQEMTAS

For `CC(C)(O)c1cc2nn(CCC3(O)CC3)cc2cc1NC(=O)c1cccc(C(F)(F)F)n1` [Example 22, N-{2-[2-(1-Hydroxycyclopropyl)ethyl]-6-(2-hydroxypropan-2-yl)-2H-indazol-5-yl}-6-(trifluoromethyl)pyridine-2-carboxamide], the IC50 in assay [1] (setting [3]) came to 3.7 nM.
As for `CC(C)(O)c1cc2nn(CCS(C)(=O)=O)cc2cc1NC(=O)c1cccc(C(F)F)n1` [Example 14, 6-(Difluoromethyl)-N-{6-(2-hydroxypropan-2-yl)-2-[2-(methylsulphonyl)ethyl]-2H-indazol-5-yl}pyridine-2-carboxamide], the IC50 in assay [1] (setting [3]) was 10.8 nM; in assay [2] (THP-1, 0.05 μg/ml LPS, 17 h), 200 nM.
For `COCCn1cc2cc(NC(=O)c3cccc(C(F)(F)F)n3)c(CO)cc2n1` [Example 2, N-[6-(Hydroxymethyl)-2-(2-methoxyethyl)-2H-indazol-5-yl]-6-(trifluoromethyl)pyridine-2-carboxamide], the IC50 in assay [2] (THP-1, 0.05 μg/ml LPS, 17 h) worked out at 15100 nM.
Take `CC(C)(O)c1cccc(C(=O)Nc2cc3cn(CCCC(F)(F)F)nc3cc2C(C)(C)O)n1` [Example 21, 6-(2-Hydroxypropan-2-yl)-N-[6-(2-hydroxypropan-2-yl)-2-(4,4,4-trifluorobutyl)-2H-indazol-5-yl]pyridine-2-carboxamide]: the IC50 turned out to be 117 nM in assay [1] (setting [3]) and 1800 nM in assay [2] (THP-1, 0.05 μg/ml LPS, 17 h).
The corresponding values for `CC(C)(O)c1cc2nn(CC3COC3)cc2cc1NC(=O)c1cccc(C(F)(F)F)n1` [Example 8, N-[6-(2-Hydroxypropan-2-yl)-2-(oxetan-3-ylmethyl)-2H-indazol-5-yl]-6-(trifluoromethyl)pyridine-2-carboxamide] are 15 nM and 1000 nM.
`COCCCn1cc2cc(NC(=O)c3cccc(C(F)(F)F)n3)c(C(=O)OC)cc2n1` [Intermediate 4-3, Methyl 2-(3-methoxypropyl)-5-({[6-(trifluoromethyl)pyridin-2-yl]carbonyl}amino)-2H-indazole-6-carboxylate]: in assay [1], the IC50 was determined as 13 nM.
Turning to `CC(C)(O)c1cc2nn(CCCO)cc2cc1NC(=O)c1cccc(C(F)F)n1` [Example 15, 6-(Difluoromethyl)-N-[6-(2-hydroxypropan-2-yl)-2-(3-hydroxypropyl)-2H-indazol-5-yl]pyridine-2-carboxamide], the IC50 was determined as 12.3 nM in assay [1] (setting [3]) and 200 nM in assay [2] (THP-1, 0.05 μg/ml LPS, 17 h).
For the compound `Cc1nc(C(=O)Nc2cc3cn(CCC(C)(C)O)nc3cc2C(C)(C)O)ccc1F` [Example 19, 5-Fluoro-N-[2-(3-hydroxy-3-methylbutyl)-6-(2-hydroxypropan-2-yl)-2H-indazol-5-yl]-6-methylpyridine-2-carboxamide], the 50% inhibitory concentration (IC50) in assay [1] (setting [3]) turned out to be 8.9 nM; in assay [2] (THP-1, 17 h), 100 nM.
`COCCn1cc2cc(NC(=O)c3cccc(C(F)(F)F)n3)c(C(=O)OC)cc2n1` [Intermediate 4-2, Methyl 2-(2-methoxyethyl)-5-({[6-(trifluoromethyl)pyridin-2-yl]carbonyl}amino)-2H-indazole-6-carboxylate] showed an IC50 in assay [1] of 21.7 nM.
As to `O=C(Nc1cc2cn(CC3COC3)nc2cc1CO)c1cccc(C(F)(F)F)n1` [Example 9, N-[6-(Hydroxymethyl)-2-(oxetan-3-ylmethyl)-2H-indazol-5-yl]-6-(trifluoromethyl)pyridine-2-carboxamide], the IC50 came to 104 nM in assay [1] (setting [3]) and 6500 nM in assay [2] (THP-1, 0.05 μg/ml LPS, 17 h).
Taken in the same sequence, the figures for `CC(C)(O)c1cc2nn(CCCOC(F)(F)F)cc2cc1NC(=O)c1cccc(C(F)(F)F)n1` [Example 17, N-{6-(2-Hydroxypropan-2-yl)-2-[3-(trifluoromethoxy)propyl]-2H-indazol-5-yl}-6-(trifluoromethyl)pyridine-2-carboxamide] were 36 nM and 500 nM.
Taken in the same sequence, the figures for `COCCn1cc2cc(NC(=O)c3cccc(C(F)(F)F)n3)c(C(C)(C)O)cc2n1` [Example 1, N-[6-(2-Hydroxypropan-2-yl)-2-(2-methoxyethyl)-2H-indazol-5-yl]-6-(trifluoromethyl)pyridine-2-carboxamide] were 30.6 nM and 1000 nM.
As to `COCCCn1cc2cc(NC(=O)c3cccc(C(F)(F)F)n3)c(CO)cc2n1` [Example 4, N-[6-(Hydroxymethyl)-2-(3-methoxypropyl)-2H-indazol-5-yl]-6-(trifluoromethyl)pyridine-2-carboxamide], the IC50 in assay [1] (setting [3]) is 52.7 nM; in assay [2] (THP-1, 0.05 μg/ml LPS, 17 h) it was 5600 nM.
For `CC(C)(O)c1cc2nn(CCO)cc2cc1NC(=O)c1cccc(C(F)(F)F)n1` [Example 5, N-[2-(2-Hydroxyethyl)-6-(2-hydroxypropan-2-yl)-2H-indazol-5-yl]-6-(trifluoromethyl)pyridine-2-carboxamide], the IC50 in assay [1] (setting [3]) came out at 264 nM; in assay [2] (THP-1, 0.05 μg/ml LPS, 17 h), 5400 nM.
For the compound `COC(=O)c1cc2nn(CCC(C)(C)O)cc2cc1NC(=O)c1cccc(C(F)(F)F)n1` [Intermediate 4-4, Methyl 2-(3-hydroxy-3-methylbutyl)-5-({[6-(trifluoromethyl)pyridin-2-yl]carbonyl}amino)-2H-indazole-6-carboxylate], inhibition in assay [1] was half-maximal at 6.2 nM (IC50).
Turning to `CC(C)(O)c1cc2nn(CCCOCC(F)(F)F)cc2cc1NC(=O)c1cccc(C(F)(F)F)n1` [Example 18, N-{6-(2-Hydroxypropan-2-yl)-2-[3-(2,2,2-trifluoroethoxy)propyl]-2H-indazol-5-yl}-6-(trifluoromethyl)pyridine-2-carboxamide], the IC50 in assay [1] (setting [3]) stood at 47.5 nM; in assay [2] (THP-1, 0.05 μg/ml LPS, 17 h) it was 300 nM.
The corresponding values for `O=C(Nc1cc2cn(CCO)nc2cc1CO)c1cccc(C(F)(F)F)n1` [Example 7, N-[2-(2-Hydroxyethyl)-6-(hydroxymethyl)-2H-indazol-5-yl]-6-(trifluoromethyl)pyridine-2-carboxamide] are 867 nM and 16400 nM.
Taken in the same sequence, the figures for `CC(C)(O)c1cc2nn(CCCC(F)(F)F)cc2cc1NC(=O)c1cccc(C(F)(F)F)n1` [Example 16, N-[6-(2-Hydroxypropan-2-yl)-2-(4,4,4-trifluorobutyl)-2H-indazol-5-yl]-6-(trifluoromethyl)pyridine-2-carboxamide] were 21.5 nM and 200 nM.
In the case of `CC(C)(O)CCn1cc2cc(NC(=O)c3cccc(C(F)F)n3)c(C(C)(C)O)cc2n1` [Example 13, 6-(Difluoromethyl)-N-[2-(3-hydroxy-3-methylbutyl)-6-(2-hydroxypropan-2-yl)-2H-indazol-5-yl]pyridine-2-carboxamide], the IC50 in assay [1] (setting [3]) worked out at 1.3 nM; in assay [2] (THP-1, 17 h), 100 nM.
Turning to `Cc1cccc(C(=O)Nc2cc3cn(CCC(C)(C)O)nc3cc2C(C)(C)O)n1` [Example 20, N-[2-(3-Hydroxy-3-methylbutyl)-6-(2-hydroxypropan-2-yl)-2H-indazol-5-yl]-6-methylpyridine-2-carboxamide], the IC50 in assay [1] (setting [3]) amounted to 13.3 nM; in assay [2] (THP-1, 0.05 μg/ml LPS, 17 h), 200 nM.
In the case of `CC(C)(O)c1cc2nn(CCCO)cc2cc1NC(=O)c1cccc(C(F)(F)F)n1` [Example 6, N-[6-(2-Hydroxypropan-2-yl)-2-(3-hydroxypropyl)-2H-indazol-5-yl]-6-(trifluoromethyl)pyridine-2-carboxamide], the IC50 in assay [1] (setting [3]) worked out at 35.7 nM; in assay [2] (THP-1, 0.05 μg/ml LPS, 17 h), 900 nM.
Taken in the same sequence, the figures for `CC(C)(O)c1cc2nn(CCCS(C)(=O)=O)cc2cc1NC(=O)c1cccc(C(F)(F)F)n1` [Example 10, N-{6-(2-Hydroxypropan-2-yl)-2-[3-(methylsulphonyl)propyl]-2H-indazol-5-yl}-6-(trifluoromethyl)pyridine-2-carboxamide] were 18.5 nM and 1000 nM.

What is called IC50 is the concentration at which inhibition is half-maximal.

(Values after patent US10308634B2, “Substituted indazoles, methods for the production thereof, pharmaceutical preparations that contain said new substituted indazoles, and use of said new substituted indazoles to produce drugs” (BAYER PHARMA AKTIENGESELLSCHAFT, priority 2014, dated 2019).)
